# Experimental data taken from ChEMBL document CHEMBL4364344, “Design, synthesis and evaluation of activity and pharmacokinetic profile of new derivatives of xanthone and piperazine in the central nervous system” (Bioorg Med Chem Lett, 2019).
# pKi: −log10 of the molar value.
# Assays:
# Rattus norvegicus [1] = species on record: Rattus norvegicus; test: Displacement of [125I]alpha-dendrotoxin rat brain voltage-gated potassium channel at 10 uM after 60 mins by radiometric scintillation analysis relative to control
# [2] = target: 5-hydroxytryptamine receptor 7 (Homo sapiens) (UniProt P34969); test: Displacement of [3H]LSD from recombinant human 5-HT7 receptor at 10 uM after 120 mins by radiometric scintillation analysis relative to control
# Rattus norvegicus [3] = species on record: Rattus norvegicus; test: Displacement of [3H] TBPS from rat GABA gated chloride channel at 10 uM measured after 120 mins by scintillation counter method relative to control relative to control
# Mus musculus = test: Anxiolytic activity in albino Swiss CD-1 mouse assessed as increase in number of punished crossings at 5 mg/kg, ip administered 30 mins prior to test by four-plate test relative to control; type: functional
# [4] = Ratio of drug uptake in CD-1 mouse brain to plasma at 5 mg/kg, ip measured up to 480 mins by LC/ESI-MS/MS analysis; type: ADME, organism-based; conditions: read-out: BPR
# [5] = Displacement of [3H]batrachotoxinin from rat brain sodium channel site 2 after 60 mins by scintillation counting analysis
# [6] = AUC (0 to t) in CD-1 mouse plasma at 5 mg/kg, ip measured up to 480 mins by LC/ESI-MS/MS analysis; type: ADME, organism-based; parameters: dose 5 mg/kg, time < 8 hr, route intraperitoneal
# [7] = target: Vasopressin V1a receptor (Homo sapiens) (UniProt P37288); test: Displacement of [3H]AVP recombinant human V1A receptor at 10 uM after 60 mins by radiometric scintillation analysis relative to control
# [8] = target: Histamine H2 receptor (Homo sapiens) (UniProt P25021); test: Displacement of [125I]APT from recombinant human H2 histamine receptor at 10 uM after 120 mins by radiometric scintillation counting analysis relative to control
# [9] = target: Adenosine receptor A3 (Homo sapiens) (UniProt P0DMS8); test: Displacement of [125I]AB-MECA from recombinant human A3 receptor at 10 uM after 120 mins by radiometric scintillation analysis relative to control
# [10] = Mutagenicity in Salmonella typhimurium TA100 at 5 ug/plate preincubated for 20 mins followed by addition of top agar and measured after 48 hrs by Ames test; type: toxicity; conditions: salmonella enterica subsp. enterica serovar typhimurium
# [11] = Tmax in CD-1 mouse brain at 5 mg/kg, ip measured up to 480 mins by LC/ESI-MS/MS analysis; type: ADME, organism-based
# [12] = target: Delta-type opioid receptor (Homo sapiens) (UniProt P41143); test: Displacement of [3H]DADLE from recombinant human DOR receptor at 10 uM after 60 mins by radiometric scintillation analysis relative to control
# [13] = target: Cannabinoid receptor 1 (Homo sapiens) (UniProt P21554); test: Displacement of [3H]CP 55940 from recombinant human CB1 receptor at 10 uM by radiometric scintillation analysis relative to control
# Rattus norvegicus [14] = species on record: Rattus norvegicus; test: Displacement of [3H]batrachotoxinin from rat brain sodium channel site 2 at 10 uM after 60 mins by scintillation counting analysis relative to control relative to control
# Rattus norvegicus [15] = species on record: Rattus norvegicus; test: Displacement of [3H]-Flumazenil from GABAA/BZD receptor in rat cortical membranes incubated for 60 mins by radioligand binding assay relative to control; type: cell membranes
# Rattus norvegicus [16] = species on record: Rattus norvegicus; test: Displacement of [3H]GABA from rat brain GABA receptor at 10 uM after 30 mins by radiometric scintillation analysis relative to control
# [17] = target: 5-hydroxytryptamine receptor 2A (Homo sapiens, UniProt P28223); test: Displacement of [3H]ketanserin from recombinant human 5-HT2A receptor after 60 mins by radiometric scintillation analysis
# [18] = target: Small conductance calcium-activated potassium channel (Rattus norvegicus) (UniProt P70604+P70606+P70605); test: Displacement of [125I]apamin from rat brain SKCa at 10 uM after 60 mins by radiometric scintillation analysis relative to control
# [19] = target: Muscarinic acetylcholine receptor M3 (Homo sapiens) (UniProt P20309); test: Displacement of [3H]4-DAMP from recombinant human M3 receptor at 10 uM after 60 mins by radiometric scintillation analysis relative to control
# [20] = Drug metabolism in mouse liver microsomes assessed as metabolite formation by measuring retention time at 20 uM after 30 to 60 mins in presence of NADP by UPLC/MS analysis; type: ADME, Microsome
# [21] = Apparent clearance in CD-1 mouse plasma at 5 mg/kg, ip measured up to 480 mins by LC/ESI-MS/MS analysis; type: ADME, organism-based
# [22] = Mutagenicity in Salmonella typhimurium TA98 at 50 ug/plate preincubated for 20 mins followed by addition of top agar and measured after 48 hrs by Ames test; type: toxicity; conditions: salmonella enterica subsp. enterica serovar typhimurium
# [23] = target: T1, 5-hydroxytryptamine receptor 2B (Homo sapiens, UniProt P41595); test: Displacement of [125I](+/-)DOI from recombinant human 5-HT2B receptor at 10 uM after 60 mins by radiometric scintillation analysis relative to control
# [24] = Mutagenicity in Salmonella typhimurium TA102 at 5 ug/plate preincubated for 20 mins followed by addition of top agar and measured after 48 hrs by Ames test; type: toxicity; conditions: salmonella enterica subsp. enterica serovar typhimurium
# [25] = Mutagenicity in Salmonella typhimurium TA102 at 50 ug/plate preincubated for 20 mins followed by addition of top agar and measured after 48 hrs by Ames test; type: toxicity; conditions: salmonella enterica subsp. enterica serovar typhimurium
# [26] = target: C-X-C chemokine receptor type 2 (Homo sapiens) (UniProt P25025); test: Displacement of [125I]IL-8 from recombinant human CXCR2 at 10 uM after 60 mins by radiometric scintillation analysis relative to control
# [27] = target: Sodium-dependent serotonin transporter (Homo sapiens) (UniProt P31645); test: Displacement of [3H]imipramine recombinant human 5-HT transporter at 10 uM after 60 mins by radiometric scintillation analysis relative to control
# [28] = target: Muscarinic acetylcholine receptor M1 (Homo sapiens) (UniProt P11229); test: Displacement of [3H]pirenzepine from recombinant human M1 receptor at 10 uM after 60 mins by radiometric scintillation analysis relative to control
# [29] = target: T1, 5-hydroxytryptamine receptor 2B; test: Displacement of [125I](+/-)DOI from recombinant human 5-HT2B receptor after 60 mins by radiometric scintillation analysis
# [30] = MRT in CD-1 mouse brain at 5 mg/kg, ip measured up to 480 mins by LC/ESI-MS/MS analysis; type: ADME, organism-based
# [31] = target: Mu-type opioid receptor (Homo sapiens) (UniProt P35372); test: Displacement of [3H]DAMGO from recombinant human MOR receptor at 10 uM after 120 mins by radiometric scintillation analysis relative to control
# [32] = target: Vasoactive intestinal polypeptide receptor 1 (Homo sapiens) (UniProt P32241); test: Displacement of [125I]VIP recombinant human VPAC1 receptor at 10 uM after 120 mins by radiometric scintillation analysis relative to control
# [33] = target: 5-hydroxytryptamine receptor 5A (Homo sapiens) (UniProt P47898); test: Displacement of [3H]LSD from recombinant human 5-HT5A receptor at 10 uM after 120 mins by radiometric scintillation analysis relative to control
# [34] = MRT in CD-1 mouse plasma at 5 mg/kg, ip measured up to 480 mins by LC/ESI-MS/MS analysis; type: ADME, organism-based
# T1 sequence (P41595 whole entry): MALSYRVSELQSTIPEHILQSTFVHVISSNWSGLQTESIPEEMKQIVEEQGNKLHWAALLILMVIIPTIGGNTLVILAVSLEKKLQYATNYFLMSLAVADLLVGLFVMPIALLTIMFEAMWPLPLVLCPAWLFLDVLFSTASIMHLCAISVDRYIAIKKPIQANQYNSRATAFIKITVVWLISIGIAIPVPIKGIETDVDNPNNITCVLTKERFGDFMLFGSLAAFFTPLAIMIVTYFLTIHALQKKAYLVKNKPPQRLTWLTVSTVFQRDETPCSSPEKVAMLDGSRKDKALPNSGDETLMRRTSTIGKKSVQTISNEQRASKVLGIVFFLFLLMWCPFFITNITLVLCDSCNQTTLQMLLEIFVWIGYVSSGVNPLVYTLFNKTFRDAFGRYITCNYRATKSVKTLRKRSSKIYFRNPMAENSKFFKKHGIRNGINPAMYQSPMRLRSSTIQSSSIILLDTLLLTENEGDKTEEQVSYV
# Sequence of Muscarinic acetylcholine receptor M1 (Homo sapiens) (P11229 whole entry): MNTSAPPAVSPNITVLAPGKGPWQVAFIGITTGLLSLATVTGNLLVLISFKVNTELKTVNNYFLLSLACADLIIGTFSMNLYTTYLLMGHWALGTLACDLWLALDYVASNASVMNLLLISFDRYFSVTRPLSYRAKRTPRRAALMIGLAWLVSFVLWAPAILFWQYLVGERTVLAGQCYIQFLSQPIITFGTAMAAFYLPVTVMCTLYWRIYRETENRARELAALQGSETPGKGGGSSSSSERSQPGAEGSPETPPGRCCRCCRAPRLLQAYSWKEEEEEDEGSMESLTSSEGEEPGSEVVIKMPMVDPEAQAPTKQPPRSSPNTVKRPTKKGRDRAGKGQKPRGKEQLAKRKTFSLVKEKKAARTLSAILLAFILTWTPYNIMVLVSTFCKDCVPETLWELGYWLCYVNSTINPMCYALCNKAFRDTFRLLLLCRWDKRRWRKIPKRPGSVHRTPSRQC
# Sequence of Mu-type opioid receptor (Homo sapiens) (P35372 whole entry): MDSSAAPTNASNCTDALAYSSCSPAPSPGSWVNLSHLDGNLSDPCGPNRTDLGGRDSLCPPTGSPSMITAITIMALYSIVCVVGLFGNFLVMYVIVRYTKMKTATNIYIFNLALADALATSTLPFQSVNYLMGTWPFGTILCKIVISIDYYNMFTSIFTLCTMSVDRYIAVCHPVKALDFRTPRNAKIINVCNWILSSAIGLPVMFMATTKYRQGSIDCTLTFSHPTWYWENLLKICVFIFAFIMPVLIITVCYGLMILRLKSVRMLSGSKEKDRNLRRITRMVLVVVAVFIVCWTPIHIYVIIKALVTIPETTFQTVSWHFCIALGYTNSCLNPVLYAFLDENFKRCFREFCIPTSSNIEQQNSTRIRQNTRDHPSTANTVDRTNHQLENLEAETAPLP
# Sequence of Muscarinic acetylcholine receptor M3 (Homo sapiens) (P20309 whole entry, looked up): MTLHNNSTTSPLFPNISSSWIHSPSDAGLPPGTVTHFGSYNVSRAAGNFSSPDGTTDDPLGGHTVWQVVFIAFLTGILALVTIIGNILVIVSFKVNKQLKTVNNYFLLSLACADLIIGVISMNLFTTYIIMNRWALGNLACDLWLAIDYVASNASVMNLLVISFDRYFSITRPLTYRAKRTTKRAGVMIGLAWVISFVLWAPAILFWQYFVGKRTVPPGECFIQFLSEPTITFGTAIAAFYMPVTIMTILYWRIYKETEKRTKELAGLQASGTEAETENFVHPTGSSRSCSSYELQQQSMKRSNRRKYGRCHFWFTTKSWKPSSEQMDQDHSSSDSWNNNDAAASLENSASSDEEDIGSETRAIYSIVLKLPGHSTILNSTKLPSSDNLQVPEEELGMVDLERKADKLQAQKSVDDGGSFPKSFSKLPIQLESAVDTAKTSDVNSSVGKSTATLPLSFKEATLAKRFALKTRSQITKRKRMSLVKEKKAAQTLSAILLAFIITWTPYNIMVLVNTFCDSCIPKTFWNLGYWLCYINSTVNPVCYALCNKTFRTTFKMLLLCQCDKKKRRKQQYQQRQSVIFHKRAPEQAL
# Sequence of Vasoactive intestinal polypeptide receptor 1 (Homo sapiens) (P32241 whole entry): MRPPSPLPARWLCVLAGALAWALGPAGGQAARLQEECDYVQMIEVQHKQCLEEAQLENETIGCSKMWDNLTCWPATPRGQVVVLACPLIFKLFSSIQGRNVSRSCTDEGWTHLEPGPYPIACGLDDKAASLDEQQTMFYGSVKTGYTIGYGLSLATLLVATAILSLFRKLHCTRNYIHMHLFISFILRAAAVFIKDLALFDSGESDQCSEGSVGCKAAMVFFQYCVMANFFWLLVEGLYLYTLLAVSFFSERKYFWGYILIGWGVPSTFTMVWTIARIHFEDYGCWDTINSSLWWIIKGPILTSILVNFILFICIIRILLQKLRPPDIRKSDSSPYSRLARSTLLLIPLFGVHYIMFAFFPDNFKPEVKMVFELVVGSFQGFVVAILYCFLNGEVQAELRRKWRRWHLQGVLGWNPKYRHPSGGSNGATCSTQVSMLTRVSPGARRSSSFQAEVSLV
# Sequence of Cannabinoid receptor 1 (Homo sapiens) (P21554 whole entry): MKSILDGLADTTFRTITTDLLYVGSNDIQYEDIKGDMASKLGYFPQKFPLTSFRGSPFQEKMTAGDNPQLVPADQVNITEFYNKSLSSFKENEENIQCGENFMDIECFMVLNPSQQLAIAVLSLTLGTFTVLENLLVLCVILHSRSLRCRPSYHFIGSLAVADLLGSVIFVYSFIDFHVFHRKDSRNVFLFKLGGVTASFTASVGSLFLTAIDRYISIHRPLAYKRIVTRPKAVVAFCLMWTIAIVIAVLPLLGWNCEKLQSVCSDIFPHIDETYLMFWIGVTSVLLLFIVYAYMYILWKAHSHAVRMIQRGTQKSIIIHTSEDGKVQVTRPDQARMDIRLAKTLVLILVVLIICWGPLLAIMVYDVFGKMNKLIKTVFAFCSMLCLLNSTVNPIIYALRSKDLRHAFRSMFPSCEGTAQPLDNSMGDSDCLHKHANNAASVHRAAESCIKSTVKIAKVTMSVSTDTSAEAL
# Sequence of 5-hydroxytryptamine receptor 5A (Homo sapiens) (P47898 whole entry): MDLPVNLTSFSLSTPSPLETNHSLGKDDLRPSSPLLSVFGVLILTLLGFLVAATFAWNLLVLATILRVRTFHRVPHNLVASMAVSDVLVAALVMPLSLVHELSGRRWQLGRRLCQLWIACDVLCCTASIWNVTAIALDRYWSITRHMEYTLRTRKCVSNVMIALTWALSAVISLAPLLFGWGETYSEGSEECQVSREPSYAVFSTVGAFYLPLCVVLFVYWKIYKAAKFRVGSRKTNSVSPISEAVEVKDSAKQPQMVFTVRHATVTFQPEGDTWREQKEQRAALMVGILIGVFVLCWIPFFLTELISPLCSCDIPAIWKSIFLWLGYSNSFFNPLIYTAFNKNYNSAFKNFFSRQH
# Sequence of Histamine H2 receptor (Homo sapiens) (P25021 whole entry): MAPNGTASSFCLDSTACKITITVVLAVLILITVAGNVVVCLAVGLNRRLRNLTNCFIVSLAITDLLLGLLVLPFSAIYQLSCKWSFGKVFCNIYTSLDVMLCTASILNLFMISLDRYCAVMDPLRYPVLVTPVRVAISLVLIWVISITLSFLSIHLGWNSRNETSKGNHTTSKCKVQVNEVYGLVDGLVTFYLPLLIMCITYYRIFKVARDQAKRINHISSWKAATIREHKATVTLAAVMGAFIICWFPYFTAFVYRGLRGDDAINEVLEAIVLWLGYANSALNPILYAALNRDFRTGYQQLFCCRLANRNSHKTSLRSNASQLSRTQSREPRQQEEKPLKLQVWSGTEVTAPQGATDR
# Sequence of C-X-C chemokine receptor type 2 (Homo sapiens) (P25025 whole entry): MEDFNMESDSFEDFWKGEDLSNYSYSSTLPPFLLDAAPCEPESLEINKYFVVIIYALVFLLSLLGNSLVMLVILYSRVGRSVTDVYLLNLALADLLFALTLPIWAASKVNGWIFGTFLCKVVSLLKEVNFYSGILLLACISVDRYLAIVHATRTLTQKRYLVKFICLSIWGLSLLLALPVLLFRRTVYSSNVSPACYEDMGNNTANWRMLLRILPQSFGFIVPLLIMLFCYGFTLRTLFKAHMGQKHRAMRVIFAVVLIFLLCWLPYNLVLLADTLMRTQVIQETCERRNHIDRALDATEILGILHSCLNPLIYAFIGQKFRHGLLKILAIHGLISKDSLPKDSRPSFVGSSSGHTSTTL
# Sequence of Sodium-dependent serotonin transporter (Homo sapiens) (P31645 whole entry, looked up): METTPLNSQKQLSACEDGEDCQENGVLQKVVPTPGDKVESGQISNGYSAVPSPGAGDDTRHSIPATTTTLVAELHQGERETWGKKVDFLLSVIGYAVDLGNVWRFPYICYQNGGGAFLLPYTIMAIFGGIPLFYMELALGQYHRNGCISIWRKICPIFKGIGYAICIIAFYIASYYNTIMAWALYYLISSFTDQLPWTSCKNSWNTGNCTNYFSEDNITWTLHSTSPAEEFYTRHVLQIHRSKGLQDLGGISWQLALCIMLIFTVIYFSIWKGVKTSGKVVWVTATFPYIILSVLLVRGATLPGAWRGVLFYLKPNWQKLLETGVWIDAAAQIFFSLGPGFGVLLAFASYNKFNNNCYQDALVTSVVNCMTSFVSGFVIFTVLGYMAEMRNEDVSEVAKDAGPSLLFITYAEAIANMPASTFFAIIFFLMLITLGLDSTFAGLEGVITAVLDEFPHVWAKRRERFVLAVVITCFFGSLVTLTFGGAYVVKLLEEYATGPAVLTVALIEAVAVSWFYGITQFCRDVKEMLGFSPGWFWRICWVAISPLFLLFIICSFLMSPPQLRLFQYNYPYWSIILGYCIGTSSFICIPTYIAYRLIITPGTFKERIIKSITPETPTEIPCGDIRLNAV
# Sequence of Adenosine receptor A3 (Homo sapiens) (P0DMS8 whole entry): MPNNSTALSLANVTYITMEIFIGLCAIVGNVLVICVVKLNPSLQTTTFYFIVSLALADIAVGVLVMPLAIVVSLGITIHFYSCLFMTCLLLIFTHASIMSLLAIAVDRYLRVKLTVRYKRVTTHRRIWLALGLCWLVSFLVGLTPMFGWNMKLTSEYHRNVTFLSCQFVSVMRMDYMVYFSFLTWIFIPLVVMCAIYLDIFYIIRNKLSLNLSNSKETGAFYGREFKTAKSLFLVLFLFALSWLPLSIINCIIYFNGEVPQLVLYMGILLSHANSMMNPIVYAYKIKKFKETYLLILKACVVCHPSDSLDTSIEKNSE
compound,measurement,setting,value
Cl.Cl.O=c1c2cc(Cl)ccc2oc2ccc(CN3CCN(CCOCCO)CC3)cc12,inhibition,Rattus norvegicus [1],-3.1%
same,inhibition,[2],5.3%
same,inhibition,Rattus norvegicus [3],5%
same,Activity,Mus musculus,66.6%
same,Kp at 8 h,[4],9.79
same,pKi,[5],5.87
same,AUC(0-t) at 8 h,[6],5490 ng·h/mL
same,inhibition,[7],-0.2%
same,inhibition,[8],10.3%
same,inhibition,[9],42.9%
same,Activity_index,[10],0.66
same,Tmax,[11],0.5 h
same,inhibition,[12],27.1%
same,inhibition,[13],-0.1%
same,inhibition,Rattus norvegicus [14],78.7%
same,inhibition,Rattus norvegicus [15],9.4%
same,inhibition,Rattus norvegicus [16],11.7%
same,pKi,[17],5.69
same,inhibition,[18],8.5%
same,inhibition,[19],50.1%
same,Retention_time,[20],4.49 min
same,CL/F,[21],12.2 mL/min/kg
same,Activity_index,[22],0.76
same,inhibition,[23],76.8%
same,Activity_index,[24],0.93
same,Activity_index,[25],0.78
same,inhibition,[26],19.8%
same,inhibition,[27],24.8%
same,inhibition,[28],52.3%
same,pKi,[29],5.54
same,MRT,[30],2.58 h
same,inhibition,[31],11.8%
same,inhibition,[32],-1.2%
same,inhibition,[33],13.8%
same,MRT,[34],2.59 h
